In brackets after ≈: the same amount, converted by molar mass. Read-outs that look alike come from different tables or passages of the source.
Tests used:
[1] = Stability in aqueous hydrochloric acid solution (pH 2), followed by thin-layer silica gel chromatography; assay type: physicochemical; conditions: water acidified with hydrochloric acid, pH 2, 25°C
Method: The test was carried out in accordance with the following method.
An aqueous solution (pH 2) of the test compound dissolved in water as acidified with hydrochloric acid was kept at 25°C, from which samples were taken out with time for analizing by thin-layer silica gel chromatography using acetonitrile-0.2 M aqueous ammonium chloride (3:1) as the development solvent. The spot of the test compound on the silica gel thin-layer was detected by using UV method, staining tests with conc. sulfuric acid and coloring tests with aqueous ammonium molybdate sulfuric acid solution, in combination, whereby the time (in hour) required for the test compound to disappear completely in the aqueous hydrochloric acid solution was determined. By way of comparison, coformycin and pentostatin were also tested by the same method.

mice [2] = conditions: intravenous administration, cited from earlier work
adenosine deaminase = target: T1, adenosine deaminase (Bos taurus, UniProt P56658); assay: Enzyme-inhibitory activity against adenosine deaminase (optical density at 265 nm); assay type: biochemical
T1 construct: purchased Sigma Chemical Type VI
T1 sequence (P56658 1-363): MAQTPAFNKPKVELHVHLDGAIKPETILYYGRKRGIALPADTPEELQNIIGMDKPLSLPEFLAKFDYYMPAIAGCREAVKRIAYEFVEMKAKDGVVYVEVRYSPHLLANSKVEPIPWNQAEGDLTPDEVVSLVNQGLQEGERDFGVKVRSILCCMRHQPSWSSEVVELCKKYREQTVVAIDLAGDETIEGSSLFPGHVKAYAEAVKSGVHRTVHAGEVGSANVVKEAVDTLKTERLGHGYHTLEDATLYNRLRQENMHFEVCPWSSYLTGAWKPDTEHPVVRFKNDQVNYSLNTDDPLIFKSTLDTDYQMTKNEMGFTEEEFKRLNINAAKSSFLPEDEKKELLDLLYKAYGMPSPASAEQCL
Method: The test of evaluating the inhibitory activity of each of the compounds against adenosine deaminase was carried out as given below.
Optical density of the reaction mixture obtained was measured with time (measured at the wave length of 265 nm), and the IC50 value of the tested compound against adenosine deaminase was calculated on the basis of decreases in the measured values of the optical density.

Escherichia coli = assay: Antibacterial activity of formycin A against Escherichia coli on bouillon-agar medium, with and without test compound; assay type: cell-based; conditions: for growth of Escherichia coli where test compound had permeated medium containing formycin A: test compound 1 mcg/ml, formycin A 100 mcg/ml in bouillon-agar medium, about 37°C
Method: In this test, an aqueous solution of each of the compounds to be tested, i.e. FCF, e-FCF, Ara-FCF or Ara-e-FCF, at a concentration of 1 mcg/ml, was added in the form of several drops on the surface of a bouillon-agar medium containing formycin A at a concentration of 100 mcg/ml to form a circular film of the said aqueous solution thereon. Then, the medium was allowed to stand to make the test compound permeate into the bouillon-agar layer. Subsequently, a strain of Escherichia coli was inoculated on the overall surface of said medium and the inoculated medium was incubated at about 37°C.

mice [3] = assay: Acute toxicity in mice, intraperitoneal administration; assay type: in vivo; conditions: 100 mg/kg
[4] = system: Providencia rettgeri GN466; assay: Minimum growth-inhibitory concentration, standard serial dilution assay; assay type: cell-based
Method: (§1) That is, a test was conducted to measure the minimum growth-inhibitory concentrations (MIC, mcg/ml) of these compounds against some microorganisms using a standard serial dilution assay method.

Providencia sp. 2991 = assay: as above; assay type: cell-based
Method: as §1

[5] = phosphate buffer 0.05 M, pH 7.4, 25°C, 5 minutes pre-incubation, substrate adenosine, read-out: Enzyme-inhibitory activity, IC50

Compound | Time (hours) required for complete disappearance of test compound in aqueous solution at pH 2 at 25°C [1] [hours] | IC50 (adenosine deaminase; [5]) [nM] | growth of Escherichia coli where test compound had permeated medium containing formycin A (Escherichia coli) | also measured
OC[C@H]1O[C@@H](n2cnc3c2NC=NC[C@H]3O)C[C@@H]1O [Pentostatin, 2'-deoxycoformycin, reference compound] | 1 | – | – | acute toxicity (body weight of tested mice) (mice [2]; 25 mg/kg): cause the decrease in the body weight of tested mice
OC[C@H]1O[C@@H](n2cnc3c2N=CNC[C@@H]3O)[C@H](F)[C@@H]1O [e-FCF, (8S)-3-(2-deoxy-2-fluoro-β-D-ribofuranosyl)-3,6,7,8-tetrahydroimidazo [4,5-d][1,3]diazepin-8-ol] | – | 100 | the bacteria could not grow to form the circular inhibition zone | –
OC[C@H]1O[C@@H](n2cnc3c2N=CNC[C@H]3O)[C@@H](F)[C@@H]1O [Ara-FCF, (8R)-3-(2-deoxy-2-fluoro-β-D-arabinofuranosyl)-3,6,7,8-tetrahydroimidazo [4,5-d][1,3]diazepin-8-ol] | 15 | 0.77 | the bacteria could not grow to form the circular inhibition zone | acute toxicity (death of mice) (mice [3]): no death of the mice
NC1O[C@H](CO)[C@@H](O)[C@H]1F (stereo partly drawn) [2-deoxy-2-fluoro-α,β-D-ribofuranosyl amine] | – | – | – | MIC [4]: 50 µg/mL (≈ 331 µM); MIC (Providencia sp. 2991): 100 µg/mL (≈ 662 µM)
OC[C@H]1O[C@@H](n2cnc3c2N=CNC[C@@H]3O)[C@@H](F)[C@@H]1O [Ara-e-FCF, (8S)-3-(2-deoxy-2-fluoro-β-D-arabinofuranosyl)-3,6,7,8-tetrahydroimidazo[4,5-d][1,3]diazepin-8-ol] | – | 2200 | the bacteria could not grow to form the circular inhibition zone | –
OC[C@H]1O[C@@H](n2cnc3c2N=CNC[C@H]3O)[C@H](O)[C@@H]1O [Coformycin, (8R)-3-(β-D-ribofuranosyl)-3,6,7,8-tetrahydroimidazo[4,5-d][1,3]diazepin-8-ol] | 10 | – | – | IC50 (adenosine deaminase): 1.7 nM; acute toxicity (death of mice) (mice [2]; 12.5 mg/kg): cause the death of mice
Nc1ncnc2c([C@@H]3O[C@H](CO)[C@@H](O)[C@H]3O)n[nH]c12 [formycin A] | – | – | – | antibacterial activity against Escherichia coli (Escherichia coli; formycin A alone at 100 mcg/ml): no antibacterial activity
NC1O[C@H](CO)[C@@H](O)[C@@H]1F (stereo partly drawn) [2-deoxy-2-fluoro-α,β-D-arabinofuranosyl amine] | – | – | – | MIC [4]: 50 µg/mL (≈ 331 µM); MIC (Providencia sp. 2991): 100 µg/mL (≈ 662 µM)
OC[C@H]1O[C@@H](n2cnc3c2N=CNC[C@H]3O)[C@H](F)[C@@H]1O [FCF, (8R)-3-(2-deoxy-2-fluoro-β-D-ribofuranosyl)-3,6,7,8-tetrahydroimidazo [4,5-d][1,3]diazepin-8-ol] | 15 | 17 | the bacteria could not grow to form the circular inhibition zone | –

— patent publication EP0643069B1, “2'-DEOXY-2'-FLUOROCOFORMYCIN AND STEREOISOMERS THEREOF” (priority 1991, dated 1993)
